Assay results: patent publication US7923461B2, “TNF-α production inhibitors” (Santen Pharmaceutical Co., Ltd., priority 2000, dated 2011)

Row | Compound | melting point [°C]
1 | CCCCN(CCC12CC3CC(CC(C3)C1)C2)C(=O)NCCCc1ccncc1 [Compound No. 1-57, 1-[2-(1-Adamantyl)ethyl]-1-butyl-3-[3-(4-pyridyl)propyl]urea] | 109.5 to 118
2 | O=C(N(CCCc1ccncc1)Cc1ccccc1)N(CCCc1ccccc1)C1CCCCC1 [Compound No. 1-60, 1-Cyclohexyl(phenyl)methyl-1-(3-phenylpropyl)-3-[3-(4-pyridyl)propyl]urea] | 107 to 112
3 | O=C(NCCCc1ccncc1)N(C1CCCCC1)C1CCCCC1 [Compound No. 1-61, 1,1-Dicyclohexyl-3-[3-(4-pyridyl)propyl]urea] | 143 to 145.5
4 | CC(C)(C)OC(=O)CCN(CCC12CC3CC(CC(C3)C1)C2)C(=O)NCCCc1ccncc1 [Compound No. 1-69, 1-[2-(1-Adamantyl)ethyl]-1-[2-(t-butoxycarbonyl)ethyl]-3-[3-(4-pyridyl)propyl]urea] | 124.5 to 127
5 | CCCCCN(CCC12CC3CC(CC(C3)C1)C2)C(=O)NCc1ccccn1 [Compound No. 1-72, 1-[2-(1-Adamantyl)ethyl]-1-pentyl-3-(2-pyridyl)methylurea] | 87.5 to 92
6 | CCCCCN(CCC12CC3CC(CC(C3)C1)C2)C(=O)NCc1cccnc1 [Compound No. 1-73, 1-[2-(1-Adamantyl)ethyl]-1-pentyl-3-(3-pyridyl)methylurea] | 88.5 to 101.5
7 | CCCCCN(CCC12CC3CC(CC(C3)C1)C2)C(=O)NCc1ccncc1 [Compound No. 1-74, 1-[2-(1-Adamantyl)ethyl]-1-pentyl-3-(4-pyridyl)methylurea] | 96.5 to 108
8 | CCCCCN(CCC12CC3CC(CC(C3)C1)C2)C(=O)NCCc1ccccn1 [Compound No. 1-75, 1-[2-(1-Adamantyl)ethyl]-1-pentyl-3-[2-(2-pyridyl)ethyl]urea] | 80 to 100
9 | CCCCCN(CCC12CC3CC(CC(C3)C1)C2)C(=O)NCCc1cccnc1 [Compound No. 1-76, 1-[2-(1-Adamantyl)ethyl]-1-pentyl-3-[2-(3-pyridyl)ethyl]urea] | 112.5 to 114.5
10 | CCCCCN(CCC12CC3CC(CC(C3)C1)C2)C(=O)NCCc1ccncc1 [Compound No. 1-80, 1-[2-(1-Adamantyl)ethyl]-1-pentyl-3-[2-(4-pyridyl)ethyl]urea] | 107 to 118
11 | CCCCCN(CCC12CC3CC(CC(C3)C1)C2)C(=O)NCCCc1ccccn1 [Compound No. 1-83, 1-[2-(1-Adamantyl)ethyl]-1-pentyl-3-[3-(2-pyridyl)propyl]urea] | 84.4 to 85.7
12 | CCCCCN(CCC12CC3CC(CC(C3)C1)C2)C(=O)NCCCCc1ccncc1 [Compound No. 1-87, 1-[2-(1-Adamantyl)ethyl]-1-pentyl-3-[4-(4-pyridyl)butyl]urea] | 74.1 to 78.1
13 | CCCCCN(CCC12CC3CC(CC(C3)C1)C2)C(=O)NCCCc1ccnc2ccccc12 [Compound No. 1-91, 1-[2-(1-Adamantyl)ethyl]-1-pentyl-3-[3-(4-quinolyl)propyl]urea] | 80.2 to 102
14 | O=C(NCCCc1ccncc1)N(CCCc1ccccc1)C(c1ccccc1)c1ccccc1 [Compound No. 1-93, 1-Diphenylmethyl-1-(3-phenylpropyl)-3-[3-(4-pyridyl)propyl]urea] | 123 to 124.8
15 | CCCCCN(CCC12CC3CC(CC(C3)C1)C2)C(=O)NCCC(C)c1ccncc1 (stereo not drawn) [Compound No. 1-104, 1-[2-(1-Adamantyl)ethyl]-1-pentyl-3-[3-(4-pyridyl)butyl]urea] | 93 to 98
16 | O=C(NCCCc1ccncc1)N(CCCC(F)(F)F)CCC12CC3CC(CC(C3)C1)C2 [Compound No. 1-105, 1-[2-(1-Adamantyl)ethyl]-3-[3-(4-pyridyl)propyl]-1-(4,4,4-trifluorobutyl)urea] | 142.6 to 145
17 | O=C(NCCCc1ccncc1)N(CCCCC(F)(F)F)CCC12CC3CC(CC(C3)C1)C2 [Compound No. 1-106, 1-[2-(1-Adamantyl)ethyl]-3-[3-(4-pyridyl)propyl]-1-(5,5,5-trifluoropentyl)urea] | 116.9 to 118.9
18 | CCCCCN(CCC12CC3CC(CC(C3)C1)C2)C(=O)NCC(CC)Cc1ccncc1 (stereo not drawn) [Compound No. 1-108, 1-[2-(1-Adamantyl)ethyl]-1-pentyl-3-[2-(4-pyridylmethyl)butyl]urea] | 72 to 77
19 | CCCCCN(CCC12CC3CC(CC(C3)C1)C2)C(=O)NCC(Cc1ccccc1)Cc1ccncc1 (stereo not drawn) [Compound No. 1-109, 1-[2-(1-Adamantyl)ethyl]-3-[2-benzyl-3-(4-pyridyl)propyl]-1-pentylurea] | 111 to 116
20 | CCCCCN(CCC12CC3CC(CC(C3)C1)C2)C(=O)NCC(Cc1ccncc1)Cc1ccncc1 [Compound No. 1-110, 1-[2-(1-Adamantyl)ethyl]-3-[2,2-bis(4-pyridylmethyl)ethyl]-1-pentylurea] | 124 to 136

Row | Compound | melting point [°C]
21 | CCCCCN(CCC12CC3CC(CC(C3)C1)C2)C(=O)NC/C=C/c1ccncc1 [Compound No. 1-112, (E)-1-[2-(1-Adamantyl)ethyl]-1-pentyl-3-[3-(4-pyridyl)-2-propenyl]urea] | 90 to 118
22 | O=C(NCCCc1ccncc1)N(CCC12CC3CC(CC(C3)C1)C2)CC(F)(F)F [Compound No. 1-114, 1-[2-(1-Adamantyl)ethyl]-3-[3-(4-pyridyl)propyl]-1-(2,2,2-trifluoroethyl)urea] | 106.2 to 107.3
23 | CCCCCN(CCc1ccccc1)C(=O)NCC(C)Cc1ccncc1 (stereo not drawn) [Compound No. 1-115, 3-[2-Methyl-3-(4-pyridyl)propyl]-1-pentyl-1-phenethylurea] | 49 to 50
24 | CC(CNC(=O)N(CCC(F)(F)F)CCC12CC3CC(CC(C3)C1)C2)Cc1ccncc1 (stereo not drawn) [Compound No. 1-117, 1-[2-(1-Adamantyl)ethyl]-3-[2-methyl-3-(4-pyridyl)propyl]-1-(3,3,3-trifluoropropyl)urea] | 81.1 to 84.1
25 | CCCCN(CCCC12CC3CC(CC(C3)C1)C2)C(=O)NCCCc1ccncc1 [Compound No. 1-122, 1-[3-(1-Adamantyl)propyl]-1-butyl-3-[3-(4-pyridyl)propyl]urea] | 79.8 to 80.4
26 | O=C(NCCCc1ccncc1)N(CCCC12CC3CC(CC(C3)C1)C2)CC(F)(F)F [Compound No. 1-123, 1-[3-(1-Adamantyl)propyl]-3-[3-(4-pyridyl)propyl]-1-(2,2,2-trifluoroethyl)urea] | 88.9 to 90
27 | CCN(CCCCC12CC3CC(CC(C3)C1)C2)C(=O)NCCCc1ccncc1 [Compound No. 1-124, 1-[4-(1-Adamantyl)butyl]-1-ethyl-3-[3-(4-pyridyl)propyl]urea] | 92.7 to 93.7
28 | CCCN(CCCCC12CC3CC(CC(C3)C1)C2)C(=O)NCCCc1ccncc1 [Compound No. 1-125, 1-[4-(1-Adamantyl)butyl]-1-propyl-3-[3-(4-pyridyl)propyl]urea] | 110 to 110.5
29 | CCCCCN(CCC12CC3CC(CC(C3)C1)C2)C(=O)NCCNc1ccncc1 [Compound No. 1-126, 1-[2-(1-Adamantyl)ethyl]-1-pentyl-3-[2-(4-pyridylamino)ethyl]urea] | 133.9 to 134.5
30 | CCCN(CCCC12CC3CC(CC(C3)C1)C2)C(=O)NCc1ccncc1 [Compound No. 1-128, 1-[3-(1-Adamantyl)propyl]-1-propyl-3-(4-pyridyl)methylurea] | 96 to 98
31 | CCN(CCCC12CC3CC(CC(C3)C1)C2)C(=O)NCCCc1ccncc1 [Compound No. 1-130, 1-[3-(1-Adamantyl)propyl]-1-ethyl-3-[3-(4-pyridyl)propyl]urea] | 97.5 to 98.2
32 | CCCN(CC(=O)NC12CC3CC(CC(C3)C1)C2)C(=O)NCCCc1ccncc1 [Compound No. 1-132, 1-(1-Adamantyl)aminocarbonylmethyl-1-propyl-3-[3-(4-pyridyl)propyl]urea] | 132 to 132.5
33 | CCCCCN(CCC12CC3CC(CC(C3)C1)C2)C(=O)NCC(C)(C)Cc1ccncc1 [Compound No. 1-135, 1-[2-(1-Adamantyl)ethyl]-3-[2,2-dimethyl-3-(4-pyridyl)propyl]-1-pentylurea] | 82.5 to 84.9
34 | OCCN(CCc1ccccc1)C(=S)NCCCc1ccncc1 [Compound No. 7-2, 1-(2-Hydroxyethyl)-1-phenethyl-3-[3-(4-pyridyl)propyl]thiourea] | 105.6 to 107.1
35 | CN(CCN(CCC12CC3CC(CC(C3)C1)C2)C(=O)NCCCc1ccncc1)S(C)(=O)=O [Compound No. 10-4, 1-[2-(1-Adamantyl)ethyl]-1-[2-[N-methyl-N-(methylsulfonyl)amino]ethyl]-3-[3-(4-pyridyl)propyl]urea] | 164.9 to 167.2
36 | CN(CCN(CCC12CC3CC(CC(C3)C1)C2)C(=O)NCCCc1ccncc1)C(=O)CC(C)(C)C [Compound No. 10-6, 1-[2-(1-Adamantyl)ethyl]-1-[2-[N-(3,3-dimethylbutyryl)-N-methylamino]ethyl]-3-[3-(4-pyridyl)propyl]urea] | 101.4 to 102.4
37 | CC(C)(C)OC(=O)NCCN(CCC12CC3CC(CC(C3)C1)C2)C(=O)NCCCc1ccncc1 [Compound No. 10-8, 1-[2-(1-Adamantyl)ethyl]-1-[2-[N-(t-butoxycarbonyl)amino]ethyl]-3-[3-(4-pyridyl)propyl]urea] | 158 to 160.5
38 | CN(CCN(CCC12CC3CC(CC(C3)C1)C2)C(=O)NCCCc1ccncc1)C(=O)OC(C)(C)C(Cl)(Cl)Cl [Compound No. 10-10, 1-[2-(1-Adamantyl)ethyl]-1-[2-[N-(1,1-dimethyl-2,2,2-trichloroethoxycarbonyl)-N-methylamino]ethyl]-3-[3-(4-pyridyl)propyl]urea] | 47 to 52
39 | CCCN(CCCC12CC3CC(CC(C3)C1)C2)C(=O)NCCCc1ccncc1.O=P(O)(O)O [Compound No. 13-10, 1-[3-(1-Adamantyl)propyl]-1-propyl-3-[3-(4-pyridyl)propyl]urea phosphate] | 148 to 149
